This is an account of results in US10596164B2, “Anti-clostridium compounds” (Nederlandse Organisatie voor …, priority 2014, dated 2020).

Experiment [1] has as its system C. difficile ATCC 43599 spores. Put plainly: MIC test with asymmetrical compounds on C. difficile spores. Format: cell-based, Clostridium difficile. The following applies: for MIC: Clostridioides difficile; for MIC spores: Table 3. On the procedure: (§1) Growth inhibition experiments were performed according to the following protocol: […] Microtiter plate wells were filled with 495 microliter of this suspension to which 5 microliter of selected compounds dissolved in DMSO was added (final concentration of each compound was 10 microgram per ml). This was all performed in an anaerobic cabinet. After filling the microtiter plate was sealed and incubated for 22 hours at 37° C. Inhibiting compounds were selected by visually determining growth inhibition. According to the same protocol as in Example 3 asymmetrical compounds were tested on their inhibitory effect of C. difficile, but also on other bacterial species, such as S. aureus and B. cereus. In the below tables the compounds and the MIC values that have been found for the various micro-organisms are listed. In the tests described in Table 4 and 5 the medium indicated as 'flora' is the SIEM medium described in […], Schols H A, Nauta A, Schoterman […]. High-throughput analysis of the impact of antibiotics on the human intestinal microbiota composition.

Experiment [2] has as its system C. difficile ATCC 43599 vegetative cells. Put plainly: MIC test with asymmetrical compounds on C. difficile vegetative cells. Format: cell-based, Clostridium difficile. The note with it: for MIC Veg. cells: Table 3; for MIC: Clostridioides difficile. The procedure: as §1
For experiment [3], the system named is Bacillus cereus ATCC 11778. Put plainly: MIC test with asymmetrical compounds on B. cereus. Format: cell-based. The following applies: ATCC11778, Table 5, read-out: MIC B. cereus ATCC 11778. On the procedure: as §1
Experiment [4] has as its system Staphylococcus aureus ATCC 6538. Put plainly: MIC test with asymmetrical compounds on S. aureus. The format is cell-based. The note with it: ATCC6538, Table 5, read-out: MIC S. aureus ATCC 6538. The procedure:
as §1

The mark [5] stands for this setting: ATCC43599, Table 4, flora (SIEM) medium, tested concentrations 1.2 μg/ml-0.03 μg/ml if not indicated otherwise, read-out: MIC spores flora.
Where [6] appears, read: spores, tested concentrations 10 μg/ml-0.003 μg/ml if not indicated otherwise.
[7] abbreviates: Table 4, SAB model medium, tested concentrations 1.2 μg/ml-0.03 μg/ml if not indicated otherwise.
The mark [8] stands for this setting: vegetative cells, tested concentrations 10 μg/ml-0.003 μg/ml if not indicated otherwise.
Where [9] appears, read: Table 4, flora (SIEM) medium, tested concentrations 1.2 μg/ml-0.03 μg/ml if not indicated otherwise.
Where [10] appears, read: ATCC43599, 22 h, Table 4, SAB model medium, tested concentrations 1.2 μg/ml-0.03 μg/ml if not indicated otherwise, read-out: MIC spores SAB model medium.
Setting [11] is: ATCC43599, Table 3, spores, tested concentrations 10 μg/ml-0.003 μg/ml if not indicated otherwise, read-out: MIC spores.
The mark [12] stands for this setting: ATCC43599, 22 h, Table 4, SAB model medium, tested concentrations 1.2 μg/ml-0.03 μg/ml if not indicated otherwise, read-out: MIC veg. cells SAB model medium.
Where [13] appears, read: ATCC43599, Table 3, vegetative cells, tested concentrations 10 μg/ml-0.003 μg/ml if not indicated otherwise, read-out: MIC Veg. cells.
Where [14] appears, read: ATCC43599, Table 4, flora (SIEM) medium, tested concentrations 1.2 μg/ml-0.03 μg/ml if not indicated otherwise, read-out: MIC veg. cells flora.

Each structure is given as a SMILES string. Converted amounts (≈) assume the structure as drawn. Like-named read-outs stand apart in the source and are kept apart here. Marks after values point to notes of the source that are not given here.

As a reminder, the MIC is the smallest concentration in the dilution series that meets the test's criterion for growth inhibition. As for `O=C1NC(=O)c2ccc3c4c(ccc1c24)C(=O)N(c1ccccc1)C3=O` [4456-3445 (6739753)], in experiment [1] (setting [5]), the MIC was 0.6 to 1.2 µg/mL (≈ 1.75 to 3.51 µM). The MIC spores in experiment [1] (setting [6]) is listed as <0.3* ug/ml. Moreover, the “MIC spores SAB model medium” value in experiment [1] (setting [7]) was under 0.3 µg/mL. Moreover, the “MIC Veg. cells” value in experiment [2] (setting [8]) is given as <0.3* ug/ml. For the same compound, the “MIC veg. cells SAB model medium” value in experiment [2] (setting [7]) was under 0.3 µg/mL. For the same compound, in experiment [2] (setting [9]), the “MIC veg. cells flora” value was in the range of 0.6 to 1.2 µg/mL.
Regarding `O=C1NC(=O)c2ccc3c4c(ccc1c24)C(=O)N(c1cccc(O)c1)C3=O` [20141155PBmol08], the minimal inhibitory concentration (MIC) in experiment [3] was 10 µg/mL (≈ 27.9 µM); in experiment [4], over 100 µg/mL; in experiment [1] (setting [10]), 0.07 to 0.15 µg/mL (≈ 0.195 to 0.419 µM); in experiment [1] (setting [11]), 0.03 to 0.07 µg/mL (≈ 0.0837 to 0.195 µM); in experiment [1] (setting [5]) it was 0.6 to 1.2 µg/mL (≈ 1.67 to 3.35 µM); in experiment [2] (setting [12]), 0.15 to 0.3 µg/mL (≈ 0.419 to 0.837 µM). In addition, the MIC in experiment [2] (setting [13]) lay within 0.07 to 0.15 µg/mL (≈ 0.195 to 0.419 µM); in experiment [2] (setting [14]), 0.6 to 1.2 µg/mL (≈ 1.67 to 3.35 µM).
`O=C1NC(=O)c2ccc3c4c(ccc1c24)C(=O)N(c1ccccc1O)C3=O` [20141155PBmol10]: the MIC in experiment [3] is 4 µg/mL (≈ 11.2 µM); in experiment [4], 40 µg/mL (≈ 112 µM); in experiment [1] (setting [10]) it was 0.3 to 0.6 µg/mL (≈ 0.837 to 1.67 µM); in experiment [1] (setting [11]) it was 0.15 to 0.3 µg/mL (≈ 0.419 to 0.837 µM); in experiment [1] (setting [5]), over 1.2 µg/mL; in experiment [2] (setting [12]), 0.3 to 0.6 µg/mL (≈ 0.837 to 1.67 µM). Further, the minimal inhibitory concentration (MIC) was 0.3 to 0.6 µg/mL (≈ 0.837 to 1.67 µM) in experiment [2] (setting [13]) and 0.15 to 0.3 µg/mL (≈ 0.419 to 0.837 µM) in experiment [2] (setting [14]).
As to `O=C1NC(=O)c2ccc3c4c(ccc1c24)C(=O)N(Cc1cccnc1)C3=O` [20141155PBmol13], the MIC in experiment [3] and in experiment [4] was over 100 µg/mL in each case.
Take `CC(=O)c1cccc(N2C(=O)c3ccc4c5c(ccc(c35)C2=O)C(=O)NC4=O)c1` [20141155PBmol17]: the MIC in experiment [3] was 4 µg/mL (≈ 10.4 µM); in experiment [4], over 100 µg/mL; in experiment [1] (setting [10]) it was 0.03 to 0.07 µg/mL (≈ 0.0781 to 0.182 µM); in experiment [1] (setting [11]), 0.01 to 0.03 µg/mL (≈ 0.026 to 0.0781 µM); in experiment [1] (setting [5]), over 1.2 µg/mL; in experiment [2] (setting [12]), 0.03 to 0.07 µg/mL (≈ 0.0781 to 0.182 µM). Besides, the MIC in experiment [2] (setting [13]) lay in the range of 0.01 to 0.03 µg/mL (≈ 0.026 to 0.0781 µM); in experiment [2] (setting [14]), 0.3 to 0.6 µg/mL (≈ 0.781 to 1.56 µM).
Take `O=C1NC(=O)c2ccc3c4c(ccc1c24)C(=O)N(c1ccccn1)C3=O` [20141155PBmol18]: the minimum inhibitory concentration (MIC) is 4 µg/mL (≈ 11.7 µM) in experiment [3]; 40 µg/mL (≈ 117 µM) in experiment [4]; 0.07 to 0.15 µg/mL (≈ 0.204 to 0.437 µM) in experiment [1] (setting [10]); 0.07 to 0.15 µg/mL (≈ 0.204 to 0.437 µM) in experiment [1] (setting [11]); 0.3 to 0.6 µg/mL (≈ 0.874 to 1.75 µM) in experiment [1] (setting [5]); 0.07 to 0.15 µg/mL (≈ 0.204 to 0.437 µM) in experiment [2] (setting [12]). Besides, the minimum inhibitory concentration (MIC) is 0.07 to 0.15 µg/mL (≈ 0.204 to 0.437 µM) in experiment [2] (setting [13]) and 0.15 to 0.3 µg/mL (≈ 0.437 to 0.874 µM) in experiment [2] (setting [14]).
As for `O=C1NC(=O)c2ccc3c4c(ccc1c24)C(=O)N(c1ccccc1)C3=O` [20141155PBmol19], the MIC in experiment [3] and in experiment [4] was over 100 µg/mL each time. Further, in experiment [1] (setting [6]), the MIC spores was in the range of 0.007 to 0.01 µg/mL. For the same compound, in experiment [1] (setting [7]), the “MIC spores SAB model medium” value was under 0.03 µg/mL. Also, the “MIC Veg. cells” value in experiment [2] (setting [8]) was in the range of 0.01 to 0.03 µg/mL. Besides, the “MIC veg. cells SAB model medium” value in experiment [2] (setting [7]) is under 0.03 µg/mL. In experiment [2] (setting [9]), the “MIC veg. cells flora” value lay in the range of 0.15 to 0.3 µg/mL.
`O=C1NC(=O)c2ccc3c4c(ccc1c24)C(=O)N(c1ccncc1)C3=O` [20141155PBmol20]: the MIC in experiment [3] and in experiment [4] was over 100 µg/mL in each case.
As to `CC(=O)OCCN1C(=O)c2ccc3c4c(ccc(c24)C1=O)C(=O)NC3=O` [20141155PBmol21], the MIC in experiment [3] is 40 µg/mL (≈ 114 µM); in experiment [4] it was over 100 µg/mL; in experiment [1] (setting [10]) it was 0.03 to 0.07 µg/mL (≈ 0.0852 to 0.199 µM); in experiment [1] (setting [11]), 0.01 to 0.03 µg/mL (≈ 0.0284 to 0.0852 µM); in experiment [1] (setting [5]), 0.3 to 0.6 µg/mL (≈ 0.852 to 1.7 µM); in experiment [2] (setting [13]), 0.03 to 0.07 µg/mL (≈ 0.0852 to 0.199 µM). The MIC in experiment [2] (setting [14]) lay within 0.15 to 0.3 µg/mL (≈ 0.426 to 0.852 µM).
